According to patent publication US20210254056A1, “IDENTIFICATION AND TARGETED MODULATION OF GENE SIGNALING NETWORKS” (CAMP4 THERAPEUTICS CORPORATION, priority 2017, published 2021):

System: hepatocytes
Assay: RNA-seq of hepatocytes treated with Phase III failure compounds
Protocol: RNA-seq was performed to determine the effects of the compounds on hepatocytes.
Significance was determined by the criteria of FPKM≥0.5, a log 2(fold-change)≥1, and a […].

Q: For C1=C/COCc2cc(ccc2OCCN2CCCC2)Nc2nccc(n2)-c2cccc(c2)COC/1 [Pacritinib], which “Number (#) of genes having significantly changed expression” value (RNA-seq, Phase III failure compounds, hepatocytes, significance: FPKM≥0.5, log 2(fold-change)≥1, q-value≥0.05 (so in the source)) is on record?
A: The value was 4114.

Q: How did the “significant changes in gene expression” value (RNA-seq of Table 36, FPKM≥0.5, log 2(fold-change)≥1, q-value≤0.05) turn out when CS(=O)(=O)c1cc(F)cc2c3c(n(Cc4ccc(Cl)cc4)c12)[C@@H](CC(=O)O)CC3 [Laropiprant (tredaptive), Laropiprant] was run?
A: The value was “not observed to cause any significant changes in gene expression”.

Q: What about the “significant modulation of expression of any of the genes analyzed” value (RNA-seq, p≤0.05, hepatocytes) of the same molecule?
A: Its value is “not observed to significantly modulate expression”.
